Patent publication US20260201008A1, “SECRETIN-DERIVED GLP1R SELECTIVE AGONISTS” (GUBRA A/S, priority 2023, published 2026)
Like-named read-outs stand apart in the source and are kept apart here. Numbered stars: 1 amine (or outer) side, 2 acyl side, 3 side chain; on linkers, the order of the positions; unused ones are H or OH. Square brackets hold non-standard residues; d marks the D form. Side chains are listed from the residue outwards. Peptide text beside a SMILES is read from it. * marks the point of attachment. C20 diacid = O=C(O)CCCCCCCCCCCCCCCCCCC(=O)*; γGlu = O=C(O)[C@H](CCC(=O)[*:2])N[*:1]; AEEA = NCCOCCOCC(=O)O; Aib = CC(C)(N)C(=O)O

Key:
[1] = Fibril formation of crude library peptides (Thioflavin T); format: physicochemical; parameters: key: average ThT fluorescence emission at 480 nm (ex 450 nm), raw units; conditions: Physical stability of peptides
Procedure, shortened: (§1)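 Turbidity is the absorbance at 600 nm, taken before heating. Fibril signal is the mean ThT emission at 480 nm (450 nm excitation), read every 10 min over 72 h at 40° C with 700 rpm shaking between reads. Peptides at 267 μM, pH 4.0 acetate or pH 7.0 phosphate buffer (50 mM), 4 μM ThT final.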

[2] = Turbidity of crude library peptides (absorbance at 600 nm); format: physicochemical; conditions: Physical stability of peptides
Procedure, shortened: as §1

SCTR = SCTR (Homo sapiens, UniProt P47872); assay: hSCTR potency, cAMP accumulation in CHO-K1 cells stably overexpressing hSCTR; format: cell-based; parameters: alternatively Euroscreen ES-712-AF; FAST-0161L; host or cells: CHO-K1; conditions: cAMP accumulation, CHO-K1 cells overexpressing hSCTR
Procedure, shortened: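 EC50 derived from variable-slope nonlinear regression on 11-point, 3-fold series run in duplicate (crude peptides: 5 points, 10-fold, n=1). Compound stimulation lasted 30 min at room temperature in casein/IBMX-containing DPBS (0.05%, 0.5 mM), 2000 cells/well; cAMP detected by time-resolved FRET after one hour.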

GLP1R = GLP1R (Homo sapiens, UniProt P43220); assay: hGLP1R potency, cAMP accumulation in CHO-K1 cells stably overexpressing hGLP1R; format: cell-based; parameters: host or cells: CHO-K1; conditions: for EC50: cAMP accumulation, CHO-K1 cells overexpressing hGLP1R; for SCTR EC50/GLP1R EC50 ratio: selectivity for hGLP1R over hSCTR, cAMP accumulation in CHO-K1 cells
Procedure, shortened: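 EC50 derives from variable-slope nonlinear regression of cAMP HTRF signal, with purified peptides tested as 11 three-fold dilutions in duplicate. Assay: hGLP1R-overexpressing CHO-K1 cells, 0.5 mM IBMX, 0.05% casein in DPBS, 30 min room-temperature stimulation, GLP-1(7-36) as reference agonist.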

[3] = read-out: hSCTR pEC50 (converted)
[4] = read-out: hGLP1R pEC50 (converted)

Sequence of SCTR (P47872 23-440): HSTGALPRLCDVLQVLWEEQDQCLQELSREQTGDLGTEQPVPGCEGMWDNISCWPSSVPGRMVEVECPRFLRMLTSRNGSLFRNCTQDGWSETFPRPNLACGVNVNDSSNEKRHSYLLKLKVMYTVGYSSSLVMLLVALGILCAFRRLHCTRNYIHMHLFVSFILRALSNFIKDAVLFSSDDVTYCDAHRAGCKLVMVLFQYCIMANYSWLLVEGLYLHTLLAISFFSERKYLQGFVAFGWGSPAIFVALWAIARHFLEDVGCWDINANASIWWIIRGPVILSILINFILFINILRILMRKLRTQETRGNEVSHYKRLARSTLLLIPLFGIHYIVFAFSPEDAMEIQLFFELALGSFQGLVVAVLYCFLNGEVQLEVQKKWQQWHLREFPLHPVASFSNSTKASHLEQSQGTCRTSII
Sequence of GLP1R (P43220 24-463): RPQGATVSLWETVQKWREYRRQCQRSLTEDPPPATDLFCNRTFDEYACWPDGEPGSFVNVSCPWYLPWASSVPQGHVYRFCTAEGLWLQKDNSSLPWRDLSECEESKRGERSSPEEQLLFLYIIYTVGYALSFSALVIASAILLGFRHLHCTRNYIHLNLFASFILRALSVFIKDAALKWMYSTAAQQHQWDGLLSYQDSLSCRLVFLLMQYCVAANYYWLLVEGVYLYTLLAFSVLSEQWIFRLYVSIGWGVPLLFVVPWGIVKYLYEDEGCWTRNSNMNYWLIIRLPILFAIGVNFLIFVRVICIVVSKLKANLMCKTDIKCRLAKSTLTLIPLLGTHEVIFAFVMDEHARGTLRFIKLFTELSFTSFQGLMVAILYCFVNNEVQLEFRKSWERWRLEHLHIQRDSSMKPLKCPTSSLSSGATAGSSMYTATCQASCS

Structure (SMILES)	Fibril formation [1]	Turbidity (pH 7) [2]	EC50 (SCTR; [3]) [nM]	EC50 (GLP1R; [4]) [nM]	SCTR EC50/GLP1R EC50 ratio (GLP1R)	EC50 (SCTR; read-out: pEC50 hSCTR (converted)) [nM]	Selectivity (GLP1R; SCTR EC50/GLP1R EC50 ratio)	EC50 (GLP1R; read-out: pEC50 hGLPR1 (converted)) [nM]
CC(C)C[C@H](NC(=O)[C@H](Cc1ccccc1)NC(=O)[C@H](CCCNC(=N)N)NC(=O)[C@H](CCC(N)=O)NC(=O)[C@H](CCC(N)=O)NC(=O)C(C)(C)NC(=O)[C@H](C)NC(=O)[C@H](CCC(=O)O)NC(=O)[C@H](CCC(=O)O)NC(=O)[C@H](CCCCNC(=O)COCCOCCNC(=O)COCCOCCNC(=O)CC[C@H](NC(=O)CCCCCCCCCCCCCCCCCCC(=O)O)C(=O)O)NC(=O)[C@H](CC(C)C)NC(=O)[C@H](Cc1ccc(O)cc1)NC(=O)[C@H](CO)NC(=O)[C@@H](NC(=O)[C@H](CC(=O)O)NC(=O)[C@H](CO)NC(=O)[C@@H](NC(=O)[C@H](Cc1ccccc1)NC(=O)[C@@H](NC(=O)CNC(=O)[C@H](CCC(=O)O)NC(=O)C(C)(C)NC(=O)[C@@H](N)Cc1c[nH]cn1)[C@@H](C)O)[C@@H](C)O)C(C)C)C(=O)N[C@@H](CCC(=O)O)C(=O)N[C@@H](Cc1c[nH]cn1)C(=O)N[C@@H](CC(C)C)C(=O)N[C@H](C(N)=O)C(C)C [compound 157] (H-H[Aib]EGTFTSDVSYLK([AEEA-AEEA-γGlu-C20 diacid])EEA[Aib]QQRFLEHLV-NH2)	3415	0.09	316	0.00251	121171	–	–	–
CC[C@H](C)[C@H](NC(=O)[C@H](CC(=O)O)NC(=O)[C@H](CO)NC(=O)[C@@H](NC(=O)[C@H](Cc1ccccc1)NC(=O)[C@@H](NC(=O)CNC(=O)[C@H](CCC(=O)O)NC(=O)C(C)(C)NC(=O)[C@@H](N)Cc1c[nH]cn1)[C@@H](C)O)[C@@H](C)O)C(=O)N[C@@H](CO)C(=O)NCC(=O)N[C@@H](CC(C)C)C(=O)N[C@@H](CC(C)C)C(=O)N[C@@H](CCC(=O)O)C(=O)NCC(=O)N[C@@H](C)C(=O)N[C@@H](C)C(=O)N[C@@H](CC(C)C)C(=O)N[C@@H](CCC(N)=O)C(=O)N[C@@H](CCCNC(=N)N)C(=O)N[C@@H](Cc1ccccc1)C(=O)N[C@H](C(=O)N[C@@H](CCC(N)=O)C(=O)N[C@@H](Cc1c[nH]c2ccccc12)C(=O)N[C@@H](CC(C)C)C(=O)N[C@H](C(N)=O)C(C)C)[C@@H](C)CC [compound 120] (H-H[Aib]EGTFTSDISGLLEGAALQRFIQWLV-NH2)	4449	0.23	200	0.0501	3717	–	–	–
CC(C)C[C@H](NC(=O)[C@H](Cc1ccccc1)NC(=O)[C@H](CCCNC(=N)N)NC(=O)[C@H](CCC(N)=O)NC(=O)[C@H](CC(C)C)NC(=O)C(C)(C)NC(=O)[C@H](C)NC(=O)[C@H](CCC(=O)O)NC(=O)[C@H](CCC(=O)O)NC(=O)[C@H](CCCCNC(=O)COCCOCCNC(=O)COCCOCCNC(=O)CC[C@H](NC(=O)CCCCCCCCCCCCCCCCCCC(=O)O)C(=O)O)NC(=O)[C@H](CC(C)C)NC(=O)[C@H](Cc1ccc(O)cc1)NC(=O)[C@H](CO)NC(=O)[C@@H](NC(=O)[C@H](CC(=O)O)NC(=O)[C@H](CO)NC(=O)[C@@H](NC(=O)[C@H](Cc1ccccc1)NC(=O)[C@@H](NC(=O)CNC(=O)[C@H](CCC(=O)O)NC(=O)CNC(=O)[C@@H](N)Cc1c[nH]cn1)[C@@H](C)O)[C@@H](C)O)C(C)C)C(=O)N[C@@H](CCC(=O)O)C(=O)N[C@@H](Cc1c[nH]cn1)C(=O)N[C@@H](CC(C)C)C(=O)N[C@H](C(N)=O)C(C)C [compound 142] (H-HGEGTFTSDVSYLK([AEEA-AEEA-γGlu-C20 diacid])EEA[Aib]LQRFLEHLV-NH2)	3679	0.08	20000	0.0126	1484910	–	–	–
CC(C)C[C@H](NC(=O)[C@H](Cc1ccccc1)NC(=O)[C@H](CCCNC(=N)N)NC(=O)[C@H](CCC(N)=O)NC(=O)[C@H](CCC(N)=O)NC(=O)[C@H](C)NC(=O)[C@H](C)NC(=O)[C@H](Cc1ccccc1)NC(=O)[C@H](CCC(=O)O)NC(=O)[C@H](CCCCNC(=O)COCCOCCNC(=O)COCCOCCNC(=O)CC[C@H](NC(=O)CCCCCCCCCCCCCCCCCCC(=O)O)C(=O)O)NC(=O)[C@H](CC(C)C)NC(=O)[C@H](Cc1ccc(O)cc1)NC(=O)[C@H](CO)NC(=O)[C@@H](NC(=O)[C@H](CC(=O)O)NC(=O)[C@H](CO)NC(=O)[C@@H](NC(=O)[C@H](Cc1ccccc1)NC(=O)[C@@H](NC(=O)CNC(=O)[C@H](CCC(=O)O)NC(=O)C(C)(C)NC(=O)[C@@H](N)Cc1c[nH]cn1)[C@@H](C)O)[C@@H](C)O)C(C)C)C(=O)N[C@@H](CCC(=O)O)C(=O)N[C@@H](Cc1c[nH]cn1)C(=O)N[C@@H](CC(C)C)C(=O)N[C@H](C(N)=O)C(C)C [compound 76] (H-H[Aib]EGTFTSDVSYLK([AEEA-AEEA-γGlu-C20 diacid])EFAAQQRFLEHLV-NH2)	20479	0.08	–	–	–	10000	122180	0.0794
CC[C@H](C)[C@H](NC(=O)[C@H](Cc1ccccc1)NC(=O)[C@H](CCCNC(=N)N)NC(=O)[C@H](CCC(N)=O)NC(=O)[C@H](CC(C)C)NC(=O)[C@H](C)NC(=O)[C@H](C)NC(=O)CNC(=O)[C@H](CCC(=O)O)NC(=O)[C@H](CC(C)C)NC(=O)[C@H](CC(C)C)NC(=O)[C@H](CCCNC(=N)N)NC(=O)[C@H](CO)NC(=O)[C@@H](NC(=O)[C@H](CC(=O)O)NC(=O)[C@H](CO)NC(=O)[C@@H](NC(=O)[C@H](Cc1ccccc1)NC(=O)[C@@H](NC(=O)CNC(=O)[C@H](CCC(=O)O)NC(=O)C(C)(C)NC(=O)[C@@H](N)Cc1c[nH]cn1)[C@@H](C)O)[C@@H](C)O)[C@@H](C)CC)C(=O)N[C@@H](CCC(N)=O)C(=O)N[C@@H](Cc1c[nH]c2ccccc12)C(=O)N[C@@H](CC(C)C)C(=O)N[C@H](C(N)=O)C(C)C [compound 115] (H-H[Aib]EGTFTSDISRLLEGAALQRFIQWLV-NH2)	6433	0.48	15.8	0.0398	459	–	–	–
CC(C)C[C@H](NC(=O)[C@H](Cc1ccccc1)NC(=O)[C@H](CCCNC(=N)N)NC(=O)[C@H](CCC(N)=O)NC(=O)[C@H](CCC(N)=O)NC(=O)[C@H](C)NC(=O)[C@H](C)NC(=O)C(C)(C)NC(=O)[C@H](CCC(=O)O)NC(=O)[C@H](CCCCNC(=O)COCCOCCNC(=O)COCCOCCNC(=O)CC[C@H](NC(=O)CCCCCCCCCCCCCCCCCCC(=O)O)C(=O)O)NC(=O)[C@H](CC(C)C)NC(=O)[C@H](Cc1ccc(O)cc1)NC(=O)[C@H](CO)NC(=O)[C@@H](NC(=O)[C@H](CC(=O)O)NC(=O)[C@H](CO)NC(=O)[C@@H](NC(=O)[C@H](Cc1ccccc1)NC(=O)[C@@H](NC(=O)CNC(=O)[C@H](CCC(=O)O)NC(=O)C(C)(C)NC(=O)[C@@H](N)Cc1c[nH]cn1)[C@@H](C)O)[C@@H](C)O)C(C)C)C(=O)N[C@@H](CCC(=O)O)C(=O)N[C@@H](Cc1c[nH]cn1)C(=O)N[C@@H](CC(C)C)C(=O)N[C@H](C(N)=O)C(C)C [compound 94] (H-H[Aib]EGTFTSDVSYLK([AEEA-AEEA-γGlu-C20 diacid])E[Aib]AAQQRFLEHLV-NH2)	10901	0.08	1000	0.01	111764	–	–	–
CC[C@H](C)[C@H](NC(=O)[C@H](Cc1ccccc1)NC(=O)[C@H](CCCNC(=N)N)NC(=O)[C@H](CCC(N)=O)NC(=O)[C@H](CC(C)C)NC(=O)[C@H](C)NC(=O)[C@H](C)NC(=O)CNC(=O)[C@H](CCC(=O)O)NC(=O)[C@H](CC(C)C)NC(=O)[C@H](CC(C)C)NC(=O)C(C)(C)NC(=O)[C@H](CO)NC(=O)[C@@H]1CCCN1C(=O)[C@H](CC(=O)O)NC(=O)[C@H](CO)NC(=O)[C@@H](NC(=O)[C@H](Cc1ccccc1)NC(=O)[C@@H](NC(=O)CNC(=O)[C@H](CCC(=O)O)NC(=O)C(C)(C)NC(=O)[C@@H](N)Cc1c[nH]cn1)[C@@H](C)O)[C@@H](C)O)C(=O)N[C@@H](CCC(N)=O)C(=O)N[C@@H](Cc1c[nH]c2ccccc12)C(=O)N[C@@H](CC(C)C)C(=O)N[C@H](C(N)=O)C(C)C [compound 125] (H-H[Aib]EGTFTSDPS[Aib]LLEGAALQRFIQWLV-NH2)	4675	0.11	10000	3.98	2342	–	–	–
